Assay results from patent US8937096B2, “Use of benzo-fused heterocyle sulfamide derivatives for the treatment of mania and bipolar disorder” (priority 2005, dated 2015).
Like-named read-outs stand apart in the source and are kept apart here.

Legend:
CH3/HeJ mice = test: Tail Suspension Test (Acute); format: in vivo, mouse; settings: for Immobility Emax % of C / Mobility Emax % of C: 7-min session; for ED50: Mus musculus, po, 7 min
Description: In the tail suspension test (TST) for evaluating compounds for anti-depressant activity, mice are suspended by their tails to a metal or plastic rod using clip or scotch tape. The test is usually quite short, 5-7 min, and the amount of time the mice spend immobile is recorded either manually or with an automated device. Agents which have antidepressant activity, decrease the duration of immobility of mice in this test.
The basic apparatus for the tail suspension assay consisted of a yellow plastic chamber (91×45×10 cm) divided for four arenas 25, 20, 20 and 25 cm wide separated by yellow plastic walls 0.75 cm thick. Mice were suspended by their tails using a rubber clip (7 cm long) attached to the plastic rod that was placed on the top of a testing chamber half way through its deep dimension. Each experimental session was videotaped and analyzed for four animals in the real time by computer software (“Depression Scan” Clever Sys Inc.). The computer justification of immobility was calibrated with the use of animals dosed with lorazepam while justification of movement was calibrated with the high dose of desipramine treated animals. […] The settings were adjusted separately for dark (CH3/HeJ and C57BI/6J strains) and white mice (Balb/cJ and A/J strains). A yellow background was used for dark mice and a blue background was used to record movements of white mice.
The ability of a test compound to decrease the duration of immobility, or increase mobility was measured using the TST procedure described above.
Data were analyzed using GraphPad Prism software (GraphPad Software, Inc. San Diego, Calif.). For the comparison of the effect of different doses for various drugs on immobility in the TST one-way analyses of variance (ANOVA) were used followed by Dunnett's multiple comparison test. […] The ED50 and Emax values were compared using two-way ANOVA and Bonferroni post-hoc test.
Positive controls included duloxetine (DLX), venlafaxine (VLX) and desipramine (DMI) which were dissolved in 0.5% methylcellulose and lorazepam (LOR) which was suspended in 0.5% of methylcellulose in water by sonication. All drugs and vehicles were administered orally (p.o.) by gavage in a volume of 10 mL/kg.
The mice were ordered 5 weeks old and at the beginning of experiment their weight was 20±5 g. Animals were housed in groups of four in plastic cages at an ambient temperature of 21° C. to 23° C. with an automated 12/12 hours light/dark cycle and access to water and a commercial rodent food ad libitum.
Each experiment consisted of seven treatment groups with four animals per group. A total of 28 animals per experiment were used. Every two consecutive experiments (1 & 2, 3 & 4, 5 & 6 and 7 & 8) were exact replicas of each other. […] One treatment group of four animals in each experiment was a vehicle treated group. In addition to the vehicle treated group, the effects of DMI at 6 mg/kg, 12 mg/kg, 30 mg/kg, 60 mg/kg and 120 mg/kg and LOR at 5 mg/kg were tested in experiments 1 and 2. […] In experiments 5 and 6 the effects of DLX at 6 mg/kg, 12 mg/kg, 30 mg/kg, 60 mg/kg, 120 mg/kg and LOR at 5 mg/kg were tested.

Sprague Dawley rats = test: Forced Swim Test (Acute); format: in vivo, rat
Description: The Forced Swim test (FST) is a commonly used procedure to screen compounds for possible antidepressant properties. This test is also known as the behavioral despair test. Rodents placed in […] tanks filled with water present a wide variety of escape or immobility behaviors. Antidepressant drugs from different classes markedly increase escape behaviors and/or decrease latency or duration of immobility.
Venlafaxine and desipramine were dissolved in water. All drugs and their vehicles were administered orally (p.o.) by gavage in a volume of 5 mL/kg.
Male Sprague Dawley rats (140 to 160 g) from Charles River Laboratories Wilmington, Mass. were used. The animals went through a five-day quarantine period before being subjected to the experimental procedure.
Animals were housed in groups of four in plastic cages at an ambient temperature of 21° C. to 23° C. with an automated 12 hour light/dark cycle and access to water and commercial rodent food ad libitum. Animals were not handled more than for the routine bedding change prior to pre-test swim session.
Each experiment consisted of seven treatment groups with n=4 animals per group. A total of 28 animals per experiment were used. Two consecutive experiments (1 and 2, 3 and 4, and 5 and 6) were exact replicas of each other. […] One treatment group of n=4 animals in each experiment was a vehicle treated group. […] In experiments 5 and 6 the effects of venlafaxine and maprotyline at 12 mg/kg, 30 mg/kg, and 60 mg/kg were tested.
The basic apparatus consisted of a cylinder (46 cm tall×˜20 cm diameter) filled with water to 30 cm deep, at a temperature of 25±1° C. The automated version of the FST was used to perform the experiments. Plumbing for automatic filling and emptying water connected the four cylinders. Cylinders were placed in the dividing chambers 25 cm wide to separate animals visually. Each 5-minute experimental session was videotaped and analyzed in real time by computer software (Clever Systems, Inc.) for four animals at a time. The immobility, swimming, climbing and escape times were recorded by the software. The four activities are defined as follow. Immobility: the animal floats motionlessly or makes only those movements necessary to keep its head above water; Climb: the animal vigorously moves vertically while scratching the wall around the cylinder; Swim: the animal moves horizontally around in the cylinder more than necessary to keep its head above water; and Escape: sum of all vigorous active movements.
The ability of a test compound to decrease the duration or frequency of immobility, or changes in swimming, climbing and escape times, was measured using the FST procedure described above. […] The analysis of the results in the studies described was focused on the immobility time during 5-minute test session.
There were two swim sessions in each experiment. First, a pre-test swim session for 15 minutes was performed. Following 48 hours later was a test session of 5-minute duration. Upon completion of a swim session, each animal was placed under a heat lamp in a cage with soft bedding for approximately 15 minutes to prevent hypothermia.
Animals were pre-treated with a vehicle or test compound after completing the pre-test swim session, then 24 hours later and then shortly prior to the 5-minute test session; i.e., three injections were given to each animal between the two swim sessions that occurred on 3 consecutive days.
Data were analyzed using GraphPad Prism software (GraphPad Software, Inc. San Diego, Calif.). For the comparison of the effect of different doses for various drugs on immobility in the FST one-way ANOVA was used followed by Dunnett's multiple comparison test. […] The ED50 and Emax values were statistically compared using two-tail t-test.

## NS(=O)(=O)NC[C@H]1COc2cc(Cl)ccc2O1 [Compound #8, (2S)-(−)-N-(6-Chloro-2,3-dihydro-benzo[1,4]dioxin-2-ylmethyl)-sulfamide]
CH3/HeJ mice; p.o., CH3/HeJ mice
  doses at which effects were statistically significant vs vehicle: 12 mg/kg, 60 mg/kg, and 120 mg/kg
  Immobility Emax % of C: 22.2±6.1 % of C
  Mobility Emax % of C: 95.6 % of C
CH3/HeJ mice; p.o., CH3/HeJ mice, listed as Cmpd #8
  Immobility Emax % of C: 22.2 % of C
CH3/HeJ mice; p.o., CH3/HeJ mice, 7-min testing session
  immobility time and mobility time: decreased immobility time and increased mobility time
Sprague Dawley rats; 30 mg/kg p.o., large variability between individual rats
  effect on immobility vs control: not significantly different from control
Sprague Dawley rats; p.o.
  Emax (immobility) in the FST: 67.0 ± 11.6 s
  doses at which effect on immobility was statistically significant vs vehicle: 12 mg/kg, 60 mg/kg, and 120 mg/kg

## COc1ccc(C(CN(C)C)C2(O)CCCCC2)cc1 (stereo not shown) [Venlafaxine, venlafaxine, reference compound]
CH3/HeJ mice; read-out: Immobility ED50
  ED50: 25 mg/kg
CH3/HeJ mice; read-out: Mobility ED50
  ED50: 21.1 mg/kg
CH3/HeJ mice; p.o., CH3/HeJ mice
  Immobility Emax % of C: 63.7 % of C
  Mobility Emax % of C: 412.6 % of C
Sprague Dawley rats; p.o.
  doses at which effect on immobility was statistically significant vs vehicle: 30 mg/kg and 60 mg/kg
